The record followed here is US20030119061A1, “Structure-based drug design methods for identifying D-Ala-D-Ala ligase inhibitors as antibacterial drugs” (priority 2001, published 2003).

The target in assay [1] is T1, D-Ala-D-Ala ligase (Escherichia coli, UniProt P07862). Put plainly: D-Ala-D-Ala ligase IC50 determination (PK/LDH coupled assay). The class given is biochemical. To be noted: control in 1× core buffer; read-out: value (IC50 or Ki) for D-Ala-D-Ala ligase inhibition. From the text: Inhibition of D-Ala-D-Ala ligase can be assayed for using the pyruvate kinase/lactate dehydrogenase (PK/LDH) assay described in Example 2. In the bacterial cell wall synthesis process, the ligase catalyzes the conversion of ATP to ADP concurrent with the ligation of two D-alanine residues. PK then regenerates ATP from the ADP thus created simultaneously with the conversion of phosphopyruvate to pyruvate. LDH catalyzes the reduction of pyruvate to lactate by converting NADH to NAD^+. By monitoring the production rate of NAD^+, D-Ala-D-Ala ligase activity can be ascertained.
The purine derivatives of Example 1 were dissolved in dimethylsulfoxide (DMSO) at a concentration of 100 mM on the day of screening, using a vortex mixer if necessary for dissolution. The solutions were kept at room temperature until screening was completed.
A 10 mM NADH (Sigma) stock solution was prepared fresh on the day of screening by dissolving 32 μmol NADH in 3.2 ml double-distilled water. The NADH solution was kept on ice. […]
At t=18-19 minutes, the substrate solution was taken from 25° C. to a Spectromax® UV-vis spectrophotometer. At t=20 minutes, within a 30 second timeframe, 125 μl of substrate solution was added to each well of columns 1-4, and the absorbance at 340 nm was read. […]

The target of assay [2] is T1, D-Ala-D-Ala ligase. Briefly: Stopped flow fluorescence quenching studies of nucleotide binding to ligase. The note with it: for Kd: partially closed complex, product of Kd1 and Kd2, read-out: final (overall) Kd. The protocol: We have discovered a significant fluorescence quenching upon binding of ATP and ADP, which we have exploited to examine mechanistic features of ligase. We have carried out stopped flow studies to look at the binding of ATP and ADP to ligase. These studies were carried out at 4° C. We observe a single exponential fluorescent quenching which is completed in <20 ms. […] This confirms our previous hypothesis about ligase, namely that the enzyme undergoes conformational changes that are an important and integral part of its enzymatic mechanism. This enzyme appears to fall into the category of “induced fit”.
The enzyme undergoes a conformational change to form the partially closed complex EA*. […] For ADP the conformational change increases the affinity of the nucleotide seven-fold for the partially closed complex, with respect to the initial collision complex, leading to an overall Kd of 50 μM. […] To dissociate the ligand, the enzyme has to relax back to the open form. […] In some cases, it can be advantageous for the inhibitor to trigger a further conformational change, perhaps the closure of the omega loop of domain D, leading to a fully closed form of the enzyme.
Stopped flow studies have added to the understanding of the mechanism by which ligase binds ligands, and have confirmed previous suspicions about “induced fit” mechanism. Determining the affinity of high affinity inhibitors (low nM) will be difficult by equilibrium binding methods or steady state enzyme kinetics. Stopped flow studies may well be the only way that the affinity of high affinity inhibitors can be determined with any degree of confidence. The studies can be carried out, for example, using the methods described by Eccleston, J. F. “Stopped-flow Spectrophotometric Techniques” in Spectrophotometry and Spectrofluorimetry a Practical Approach, Ed. D. A. Harris & C. L. Bashford, IRL Press, 1987, p. 137-164.

Assay [3] concerns the target D-Ala-D-Ala ligase omega loop (D domain) (Escherichia coli, UniProt P07862). Briefly: Proteolysis (trypsin) assay of omega loop closure. The class given is biochemical. The source says: (§1) We have developed an in vitro assay to look at the closure of the omega loop (i.e., the D domain). The closure of the omega loop is probed by proteolysis.
The target in assay [4] is T1, D-Ala-D-Ala ligase. Put plainly: Affinity for D-Ala-D-Ala ligase relative to ATP (method not given). The class given is binding. To be noted: given in brackets after ATP.
Source text: as §1

Setting [5] is: together with a D-Ala site binding molecule (phosphinate, D-Ala-D-Ala or cycloserine).

As for `N[C@@H]1CON=C1O` [Cycloserine, D-cycloserine], the IC50 in assay [1] was about 150 µM.
In the case of `Nc1ncnc2c1ncn2[C@@H]1O[C@H](COP(=O)(O)OP(=O)(O)O)[C@@H](O)[C@H]1O` [ADP], the “affinity for D-Ala-D-Ala ligase relative to ATP” value in assay [2] (ADP vs ATP) was “three”. In addition, in assay [2] (stopped flow, 4° C.), the “increase in affinity by the conformational change (partially closed vs initial collision complex)” value is reported as “seven”, the “net dissociation rate constant (k−2)” value turned out to be 72 s⁻¹ and the dissociation constant (Kd) worked out at 50 µM. Also, the “omega loop closure (protection from trypsin proteolysis)” value (shortened to “omega loop closure”) in assay [3] (setting [5]) is given as “stabilize the omega loop closure”.
As to `Nc1ncnc2c1ncn2[C@@H]1O[C@H](COP(=O)(O)OP(=O)(O)OP(=O)(O)O)[C@@H](O)[C@H]1O` [ATP, adenosine triphosphate], in assay [2] (stopped flow, 4° C.), the “increase in affinity by the conformational change (partially closed vs initial collision complex)” value was 3.2 fold. The equilibrium dissociation constant (Kd) in assay [2] (stopped flow, 4° C.) came to 157 µM; in assay [4] it was 300 µM. Also, the koff in assay [2] (stopped flow, 4° C., read-out: net dissociation rate constant (k−2)) is 126 s⁻¹. The “omega loop closure” value in assay [3] (nucleotide alone, no D-Ala site binding molecule) was “cannot close the omega loop”; in assay [3] (setting [5]), “stabilize the omega loop closure”.
For `Nc1ncnc2c1ncn2[C@@H]1O[C@H](COP(=O)(O)OP(=O)(O)OP(O)(O)=S)[C@@H](O)[C@H]1O` [ATPgS], in assay [3] (setting [5]), the “omega loop closure” value is listed as “stabilize the omega loop closure”.
For the compound `Nc1ncnc2c1ncn2[C@@H]1O[C@H](COP(=O)(O)OP(=O)(O)NP(=O)(O)O)[C@@H](O)[C@H]1O` [AMPPNP], the “omega loop closure” value in assay [3] (setting [5]) is on record as “does not support the omega loop closure”.

Usually IC50 stands for the point on the concentration scale where inhibition reaches its midpoint. As usually defined, the Kd is the constant that tells how readily two partners part at equilibrium.
